Laboratory results as given in patent publication US8907093B2, “Carboxylic acid derivatives having an oxazolo[4,5-c]pyridine ring” (Sanofi, priority 2011, dated 2014).

Biological target: T1, human Edg 1 receptor (Homo sapiens, UniProt P21453)
T1 construct: FLAG (N); expressed in transfected cells; membrane preparation
Assay: GTP-γ-S assay using human Edg 1 receptors (scintillation proximity assay, CHO Flp-In membrane preparation)
Type: biochemical
Details: test compound at 10 μM; [35S]GTP-γ-S binding; membranes of CHO Flp-In cells overexpressing human Edg 1
Source text: A) GTP-γ-S assay using human Edg 1 receptors
In order to determine the Edg 1 receptor activation by the compounds of the invention, a GTP-γ-S ((GTP-γ-S=guanosine 5′-[thio]triphosphate) assay for G-protein coupled receptor binding based on the scintillation proximity assay principle was used, employing a cell membrane preparation from a CHO Flp-In cell line which constitutively overexpresses the human Edg 1 receptor.
A membrane preparation was obtained by standard methods from the afore-described CHO Flp-In cell line constitutively overexpressing the human Edg 1 receptor. Briefly, the cryopreserved cells were taken in culture and grown until confluency in T175 cell culture flasks (Becton Dickinson, cat. no. 35 5001). […] Protein concentration of the membrane preparation was determined in a sample by means of a commercial protein assay (Bio-Rad, DC Protein Assay, cat. nos. 500-0113, 500-0114, 500-0115).
The Edg 1 membrane preparation obtained in (b) was employed in a commercially available scintillation proximity assay (SPA) kit for G-protein coupled receptor binding from Amersham Biosciences/GE Healthcare (code RPNQ0210), in which ligand-induced binding of ^35S-radiolabeled GTP-γ-S to the receptor-containing membrane, which is bound to scintillation beads, stimulates the emission of light and allows to quantify the in vitro activity of the Edg 1 agonistic compound. […]

T1 sequence (P21453 whole entry): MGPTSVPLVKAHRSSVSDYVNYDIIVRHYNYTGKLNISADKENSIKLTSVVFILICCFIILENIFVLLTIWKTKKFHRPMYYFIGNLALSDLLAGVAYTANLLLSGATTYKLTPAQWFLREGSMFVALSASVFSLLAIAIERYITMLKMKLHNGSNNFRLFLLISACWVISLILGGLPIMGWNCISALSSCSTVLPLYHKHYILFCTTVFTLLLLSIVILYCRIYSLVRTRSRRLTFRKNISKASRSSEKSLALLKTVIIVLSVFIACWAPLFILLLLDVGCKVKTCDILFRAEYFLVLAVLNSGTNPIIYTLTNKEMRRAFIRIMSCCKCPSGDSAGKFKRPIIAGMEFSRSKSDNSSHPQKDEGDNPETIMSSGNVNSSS

- receptor activation in percent of the respective high control (10 μM S1P, regarded as 100% activation): 86%
Structure (SMILES): Cc1cc(-c2nc3cnc(Oc4ccccc4F)cc3o2)cc(C)c1OCC(=O)O [Example 1, {4-[6-(2-Fluorophenoxy)oxazolo[4,5-c]pyridin-2-yl]-2,6-dimethylphenoxy}acetic acid]
